Experimental findings from patent publication US11230555B2, “Bicyclic RORγ modulators” (Escalier Biosciences B.V., priority 2018, dated 2022) are described below.

Molecules are shown by their SMILES. Where only a bound is given, the exact number is not on record here.

The target of this assay is T1, RORγt (Homo sapiens, UniProt P51449).
T1 construct: purchased reporter-cell kit
T1 sequence (P51449 269-508 limits assumed): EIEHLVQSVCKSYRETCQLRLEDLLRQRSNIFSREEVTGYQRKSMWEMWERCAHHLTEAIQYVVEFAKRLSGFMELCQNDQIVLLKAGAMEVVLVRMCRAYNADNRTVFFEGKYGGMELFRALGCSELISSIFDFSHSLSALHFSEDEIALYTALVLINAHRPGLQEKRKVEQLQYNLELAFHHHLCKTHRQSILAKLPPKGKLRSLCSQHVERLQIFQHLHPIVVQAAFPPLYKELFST
The assay is described as follows: Gal4 ligand binding assay (RORγt Gal fusion reporter assay). Type of assay: cell-based. As to conditions: inverse agonists, luciferase reporter, 24h. The protocol: Compounds of the present invention were tested in a human RORγ ligand binding assay using a commercially available cell based ligand binding reporter assay in 96-well format (Cat #IB04001, INDIGO Biosciences, State College, Pa.). The N-terminal DNA binding domains (DBD) of the native RORγ and RORγt receptors have been substituted with that of the yeast GAL4-DBD and stably transfected in […] cells that also stably express luciferase under the regulation by upstream activation sequence of yeast Gal4. These cells constitutively express high level RORγ activity due to binding of endogenous co-factors. Both agonist and inverse agonist activity can be detected. The assay was performed according to kit manufacturer's instructions as follows. 10 mM compound stocks were diluted serially 1:3 with DMSO and further diluted with provided media to generate 10 titration points from 60 μM to 3 nM. These treatment conditions were added to the plates as 2× media in 100 μL volume. Each plate includes a positive control with 10 titration points as well as 6negative control wells with vehicle only, with final DMSO concentration of 0.2%. RORγ reporter cells were rapidly thawed and added to the plates in 100 μL volume. The plates were incubated for 24h in a 37° C. humidified 5% CO2incubator. Media was removed before the addition of room temperature luciferous detection substrate. After 5 minute incubation, relative light units (RLUs) were quantified using a plate reading luminometer. Data was normalized to positive control wells with only […]. Before establishing internal controls, ursolic acid was used as control.
(In general: A reporter such as luciferase makes a cellular process visible.)
On to `Cc1cc(CN2CC3CCC(C2)N3Cc2ccncn2)ccc1-c1ccc(C(O)(C(F)(F)F)C(F)(F)F)cc1` [Example 47, 1,1,1,3,3,3-hexafluoro-2-(2′-methyl-4′-((8-(pyrimidin-4-ylmethyl)-3,8-diazabicyclo[3.2.1]octan-3-yl)methyl)-[1,1′-biphenyl]-4-yl)propan-2-ol], for which the 50% inhibitory concentration (IC50) – broadly, the concentration needed to halve the response being measured – was less than 50 nM.

On to `CCc1cc(CN2CC3CCC(C2)N3S(C)(=O)=O)ccc1-c1ccc(C(O)(C(F)(F)F)C(F)(F)F)cn1` [Example 32, 2-(6-(2-ethyl-4-((8-(methylsulfonyl)-3,8-diazabicyclo[3.2.1]octan-3-yl)methyl)phenyl)pyridin-3-yl)-1,1,1,3,3,3-hexafluoropropan-2-ol], for which the IC50 was 50 to 250 nM.

With `Cc1cc(CN2CC3CCC(C2)N3Cc2ccncc2)ccc1-c1ccc(C(O)(C(F)(F)F)C(F)(F)F)cc1` [Example 78, 1,1,1,3,3,3-hexafluoro-2-(2′-methyl-4′-((8-(pyridin-4-ylmethyl)-3,8-diazabicyclo[3.2.1]octan-3-yl)methyl)-[1,1′-biphenyl]-4-yl)propan-2-ol], the IC50 is less than 50 nM.

On to `Cc1cc(CN2CC3CCC(C2)N3C(=O)c2ccncc2)ccc1-c1ccc(C(O)(C(F)(F)F)C(F)(F)F)cc1` [Example 75, (3-((4′-(1,1,1,3,3,3-hexafluoro-2-hydroxypropan-2-yl)-2-methyl-[1,1′-biphenyl]-4-yl)methyl)-3,8-diazabicyclo[3.2.1]octan-8-yl)(pyridin-4-yl)methanone], for which the concentration for half-maximal inhibition (IC50) was 50 to 250 nM.

`OC(c1ccc(-c2ccc(CN3CC4CCC(C3)N4Cc3ccncc3)cc2Cl)cc1)(C(F)(F)F)C(F)(F)F` [Example 56, 2-(2′-chloro-4′-((8-(pyridin-4-ylmethyl)-3,8-diazabicyclo[3.2.1]octan-3-yl)methyl)-[1,1′-biphenyl]-4-yl)-1,1,1,3,3,3-hexafluoropropan-2-ol] showed a half-maximal inhibitory concentration (IC50) of less than 50 nM.

The compound `CS(=O)(=O)N1C2CCC1CN(Cc1ccc(-c3ccc(C(O)(C(F)(F)F)C(F)(F)F)cc3)c(Cl)c1)C2` [Example 55, 2-(2′-chloro-4′-((8-(methylsulfonyl)-3,8-diazabicyclo[3.2.1]octan-3-yl)methyl)-[1,1′-biphenyl]-4-yl)-1,1,1,3,3,3-hexafluoropropan-2-ol] registered an IC50 of 50 to 250 nM.

In the case of `Cc1cc(CN2CC3CCC(C2)N3c2noc(C(C)(C)C)n2)ccc1-c1ccc(C(O)(C(F)(F)F)C(F)(F)F)cc1` [Example 36, 2-(4′-((8-(5-(tert-butyl)-1,2,4-oxadiazol-3-yl)-3,8-diazabicyclo[3.2.1]octan-3-yl)methyl)-2′-methyl-[1,1′-biphenyl]-4-yl)-1,1,1,3,3,3-hexafluoropropan-2-ol], the half-inhibitory concentration (IC50) was more than 250 nM.

With `CCc1cc(CN2CC3CCC(C2)N3S(C)(=O)=O)cnc1-c1ccc(C(O)(C(F)(F)F)C(F)(F)F)cc1C` [Example 33, 2-(4-(3-ethyl-5-((8-(methylsulfonyl)-3,8-diazabicyclo[3.2.1]octan-3-yl)methyl)pyridin-2-yl)-3-methylphenyl)-1,1,1,3,3,3-hexafluoropropan-2-ol], the half-inhibitory concentration (IC50) was more than 250 nM.

`OC(c1ccc(-c2ccc(CN3C4CCC3CN(Cc3ccncc3)C4)cc2)cc1)(C(F)(F)F)C(F)(F)F` [Example 2, 1,1,1,3,3,3-hexafluoro-2-(4′-((3-(pyridin-4-ylmethyl)-3,8-diazabicyclo[3.2.1]octan-8-yl)methyl)-[1,1′-biphenyl]-4-yl)propan-2-ol] registered a half-maximal inhibitory concentration (IC50) of more than 250 nM.

`Cc1cc(CN2CC3CC2CN3Cc2ccncc2)ccc1-c1ccc(C(O)(C(F)(F)F)C(F)(F)F)cc1` (centres unmarked) [Example 72, 1,1,1,3,3,3-hexafluoro-2-(2′-methyl-4′-((5-(pyridin-4-ylmethyl)-2,5-diazabicyclo[2.2.1]heptan-2-yl)methyl)-[1,1′-biphenyl]-4-yl)propan-2-ol] gave an IC50 of more than 250 nM.

The compound `CC(=O)N1C2CCC1CN(Cc1ccc(-c3ccc(C(O)(C(F)(F)F)C(F)(F)F)cc3)c(C)c1)C2` [Example 71, 1-(3-((4′-(1,1,1,3,3,3-hexafluoro-2-hydroxypropan-2-yl)-2-methyl-[1,1′-biphenyl]-4-yl)methyl)-3,8-diazabicyclo[3.2.1]octan-8-yl)ethan-1-one] yielded a concentration for half-maximal inhibition (IC50) of 50 to 250 nM.

For `CS(=O)(=O)N1C2CCC1CN(Cc1ccc(-c3ccc(C(O)(C(F)(F)F)C(F)(F)F)cc3)c(F)c1)C2` [Example 61, 1,1,1,3,3,3-hexafluoro-2-(2′-fluoro-4′-((8-(methylsulfonyl)-3,8-diazabicyclo[3.2.1]octan-3-yl)methyl)-[1,1′-biphenyl]-4-yl)propan-2-ol], the half-maximal inhibitory concentration (IC50) is more than 250 nM.

`CCc1nc(CN2CC3CCC(C2)N3S(C)(=O)=O)ccc1-c1ccc(C(O)(C(F)(F)F)C(F)(F)F)cc1C` [Example 5, 2-(4-(2-ethyl-6-((8-(methylsulfonyl)-3,8-diazabicyclo[3.2.1]octan-3-yl)methyl)pyridin-3-yl)-3-methylphenyl)-1,1,1,3,3,3-hexafluoropropan-2-ol] registered a concentration for half-maximal inhibition (IC50) of more than 250 nM.

The compound `CCc1c(F)c(CN2CC3CCC(C2)N3S(C)(=O)=O)cc(F)c1-c1ccc(C(O)(C(F)(F)F)C(F)(F)F)cc1F` [Example 23, 2-(2′-ethyl-2,3′,6′-trifluoro-4′-((8-(methylsulfonyl)-3,8-diazabicyclo[3.2.1]octan-3-yl)methyl)-[1,1′-biphenyl]-4-yl)-1,1,1,3,3,3-hexafluoropropan-2-ol] yielded a 50% inhibitory concentration (IC50) of less than 50 nM.

Compound `CC(C)c1cc(CN2CC3CCC(C2)N3S(C)(=O)=O)c(F)cc1-c1ccc(C(O)(C(F)(F)F)C(F)(F)F)cc1Cl` [Example 15, 2-(2-chloro-5′-fluoro-2′-isopropyl-4′-((8-(methylsulfonyl)-3,8-diazabicyclo[3.2.1]octan-3-yl)methyl)-[1,1′-biphenyl]-4-yl)-1,1,1,3,3,3-hexafluoropropan-2-ol] had an IC50 of less than 50 nM.

The compound `CS(=O)(=O)N1C2CCC1CN(Cc1ccc(-c3ccc(C(O)(C(F)(F)F)C(F)(F)F)cc3)c(Br)c1)C2` [Example 40, 2-(2′-bromo-4′-((8-(methylsulfonyl)-3,8-diazabicyclo[3.2.1]octan-3-yl)methyl)-[1,1′-biphenyl]-4-yl)-1,1,1,3,3,3-hexafluoropropan-2-ol] yielded a concentration for half-maximal inhibition (IC50) of 50 to 250 nM.

The compound `CCc1cc(CN2CC3COCC(C2)N3S(C)(=O)=O)ccc1-c1ccc(C(O)(C(F)(F)F)C(F)(F)F)cc1` [Example 12, 2-(2′-ethyl-4′-((9-(methylsulfonyl)-3-oxa-7,9-diazabicyclo[3.3.1]nonan-7-yl)methyl)-[1,1′-biphenyl]-4-yl)-1,1,1,3,3,3-hexafluoropropan-2-ol] yielded an IC50 of 50 to 250 nM.

In the case of `Cc1cc(CN2CC3CCC(C2)N3C(=O)Cc2c(F)cccc2F)ccc1-c1ccc(C(O)(C(F)(F)F)C(F)(F)F)cc1` [Example 74, 2-(2,6-difluorophenyl)-1-(3-((4′-(1,1,1,3,3,3-hexafluoro-2-hydroxypropan-2-yl)-2-methyl-[1,1′-biphenyl]-4-yl)methyl)-3,8-diazabicyclo[3.2.1]octan-8-yl)ethan-1-one], the IC50 is more than 250 nM.

Turning to `Cc1cc(CN2CC3CCC(C2)N3S(=O)(=O)C(F)(F)F)ccc1-c1ccc(C(O)(C(F)(F)F)C(F)(F)F)cc1` [Example 60, 1,1,1,3,3,3-hexafluoro-2-(2′-methyl-4′-((8-((trifluoromethyl)sulfonyl)-3,8-diazabicyclo[3.2.1]octan-3-yl)methyl)-[1,1′-biphenyl]-4-yl)propan-2-ol], the IC50 was more than 250 nM.

In the case of `CCOC(=O)N1C2CCC1CN(Cc1ccc(-c3ccc(C(O)(C(F)(F)F)C(F)(F)F)cc3)c(C)c1)C2` [Example 44, ethyl 3-((4′-(1,1,1,3,3,3-hexafluoro-2-hydroxypropan-2-yl)-2-methyl-[1,1′-biphenyl]-4-yl)methyl)-3,8-diazabicyclo[3.2.1]octane-8-carboxylate], the 50% inhibitory concentration (IC50) was more than 250 nM.

`Cc1cc(CN2CC3CCC2CN3S(C)(=O)=O)ccc1-c1ccc(C(O)(C(F)(F)F)C(F)(F)F)cc1` (centres unmarked) [Example 50, 1,1,1,3,3,3-hexafluoro-2-(2′-methyl-4′-((5-(methylsulfonyl)-2,5-diazabicyclo[2.2.2]octan-2-yl)methyl)-[1,1′-biphenyl]-4-yl)propan-2-ol] had a concentration for half-maximal inhibition (IC50) of more than 250 nM.

In the case of `CC(C)c1cc(CN2CC3CCC(C2)N3S(C)(=O)=O)ccc1-c1ccc(C(O)(C(F)(F)F)C(F)(F)F)cc1Cl` [Example 22, 2-(2-chloro-2′-isopropyl-4′-((8-(methylsulfonyl)-3,8-diazabicyclo[3.2.1]octan-3-yl)methyl)-[1,1′-biphenyl]-4-yl)-1,1,1,3,3,3-hexafluoropropan-2-ol], the IC50 fell in the range of 50 to 250 nM.

For `Cc1cc(CN2CC3CCC(C2)N3S(C)(=O)=O)ccc1-c1ccc(C(O)(C(F)(F)F)C(F)(F)F)cc1` [Example 73, 1,1,1,3,3,3-hexafluoro-2-(2′-methyl-4′-((8-(methylsulfonyl)-3,8-diazabicyclo[3.2.1]octan-3-yl)methyl)-[1,1′-biphenyl]-4-yl)propan-2-ol], the IC50 was in the range of 50 to 250 nM.
